Laboratory results: patent US20090214420A1, “Method of Diagnosis and Treatment and Agents Useful for Same” (MEDVET SCIENCE PTY. LTD., priority 2005, published 2009)
“Also recorded” adds a separate entry of the source.

Assays:
Assay type in all cases: cell-based, human
Jurkat cells [1] = assay: Flow cytometry (PI, La, hTERT, TRF2 staining) of Jurkat cells after cytotoxic treatment; settings: FIG. 4B; for hTERT staining of Jurkat cells: 48 h treatment, only in PI high cells
Protocol: (§1) FIG. 4 is a graphical representation of the cytotoxic treatment of malignant human cells results in increased expression of TRF2 and La in apoptotic cells 24 h after treatment and in increased expression of hTERT in apoptotic cells 48 h after treatment. A. Jurkat cells after 24 h treatment with cytotoxic agents. […] B. Jurkat cells after 48 h treatment with cytotoxic agents. […] C. Raji cells after 24 h treatment with cytotoxic agents. […] D. Jurkat cells after 24 h treatment with cytotoxic agents. […] E. Jurkat cells after 48 h treatment with cytotoxic agents. Staining for La (3B9-F1TC) and TRF2 in apoptotic cells was more evident 48 h after treatment with all cytotoxic agents. F. Raji cells after 48 h treatment with cytotoxic agents. […] G. HeLa cells after 48 h treatment with cytotoxic agents. […] In each case, the staining is indicated above each column of panels and the cytotoxic employed is indicated to the left of each row of panels. Also indicated is a PI only control and negative controls for hTERT staining (purified rat IgG or anti-rat secondary antibody alone) and for TRF2 staining (purified mouse IgG or anti-mouse secondary antibody alone).
(§2) The Jurkat and Raji cell lines were cultured in RPMI supplemented with 10% FCS, 50 U/mL penicillin and 50 μg/mL streptomycin sulphate and the U2OS and HeLa cell lines were cultured in DMEM supplemented with 10% FCS, 50 U/mL penicillin and 50 μg/mL streptomycin sulphate (JRH Laboratories). The cell lines were treated for 24 or 48-hour periods with various cytotoxic agents as follows: Jurkat and Raji cells with etoposide, 20 μg/mL; HeLa and U2OS cells with cisplatin, 1 μg/mL, and vincristine, 0.1 μg/mL; Jurkat, HeLa and U2OS cells with 0.5 μM STS, and Raji cells with 2 μM STS. The treated cells were stained with propidium iodide (PI) (Sigma) 0.5 μg/mL and FITC-conjugated Sal5 or 3B9 mAb, or mouse anti-TRF2 mAb (clone 36, Becton-Dickinson) and then secondary antibody, anti mouse FITC (Chemicon, Temecula, Calif., USA), or rat anti-hTERT mAb (clone 36-10, Alexis Biochemicals) and then secondary antibody, anti rat FITC (Caltag, Burlingame, Calif., USA). Purified mouse IgG or rat IgG (Institute of Medical and Veterinary Science, Adelaide, Australia) were used as negative controls for TRF2 and hTERT staining, respectively. To further improve the method for detection of hTERT for later use in whole blood staining, which appeared to have been hindered by the presence of autofluorescence presumably emanating from red blood cells, anti-hTERT monoclonal antibody clone 36-10 was conjugated directly to AlexaFluor350 (Molecular Probes), which is excited at 355 nm and emits maximally between 420-460 nm. Anti-hTERT-Alexa350 was combined with the EpCAM monoclonal antibody (BD Biosciences), which is conjugated to PE that excites at 488 nm and emits 560-590 nm, and the nuclear impermeant DNA-binding dye TOPRO-3 (Molecular Probes), which excites at 560 nm and emits maximally in the far red region (>650 nm).
The human T cell leukemia cell line, Jurkat, and the human B lymphoma cell line, Raji, were treated for 24 or 48 hour periods with the following cytotoxic agents: staurosporine, which is a pan-kinase inhibitor, etoposide, which is a topoisomerase II inhibitor, vincristine, which is a microtubule depolymerising agent and cisplatin, which is a DNA cross linking agent. Cells were then stained with propidium iodide (PI) and the anti-La monoclonal antibody (mAb), 3B9, or its isotype control, Sal5, or with mAbs specific for hTERT or TRF2. As negative controls for staining with the hTERT- or TRF2-specific mAbs, rat IgG and anti-rat secondary antibody or mouse IgG and anti-mouse secondary antibody, respectively, were used.

Raji cells = assay: Flow cytometry (PI, La, hTERT, TRF2 staining) of Raji cells after cytotoxic treatment; settings: for TRF2 staining of Raji cells: 48 hours, FIG. 4F
Protocol: as §1
as §2, with “Anti-hTERT-Alexa350 was combined with the EpCAM monoclonal antibody (BD Biosciences), which is conjugated to PE that excites at 488 nm and emits 560-590 nm, and the nuclear impermeant DNA-binding dye TOPRO-3 (Molecular Probes), which excites at 560 nm and emits maximally in the far red region (>650 nm).” left out

HeLa cells = assay: Flow cytometry (PI, La, hTERT, TRF2 staining) of HeLa cells after cytotoxic treatment; settings: FIG. 4G; for apoptosis and La staining in HeLa cells: 48 h treatment
Protocol: as §1, §2
Similarly, TRF2 staining of PI^+ dead Jurkat cells was evident as soon as 24 hours after cytotoxic treatment (FIG. 4D) and 48 hours afterwards (F1G. 4E). […] In contrast, it took 48 hours after treatment with cisplatin, etoposide and vincristine for hTERT staining of PI^+ dead Jurkat cells to be evident (arrows, FIG. 4B). hTERT staining of PI^+ dead Raji cells was evident 48 hours after treatment with vincristine (arrow, FIG. 4C). As additional controls, the telomerase-expressing human cervical carcinoma cell line, HeLa, and the telomerase-negative human osteosarcoma cell line, U2OS (M Frolkis et al. Cancer Gene Therapy 10, 239-249, 2003), were also treated with staurosporine, vincristine and etoposide and analysed by flow cytometry 48 hours after treatment.

U2OS cells [2] = assay: Flow cytometry (PI, La, hTERT, TRF2 staining) of U2OS cells after cytotoxic treatment; settings: FIG. 4H
Protocol: as §1, §2
Similarly, TRF2 staining of PI^+ dead Jurkat cells was evident as soon as 24 hours after cytotoxic treatment (FIG. 4D) and 48 hours afterwards (F1G. 4E). […] As additional controls, the telomerase-expressing human cervical carcinoma cell line, HeLa, and the telomerase-negative human osteosarcoma cell line, U2OS (M Frolkis et al. Cancer Gene Therapy 10, 239-249, 2003), were also treated with staurosporine, vincristine and etoposide and analysed by flow cytometry 48 hours after treatment.

H69 cells = assay: BerEP4-FITC / PI staining of etoposide-treated H69 cells; settings: 48 hours
Protocol: FIG. 8 is a graphical representation of the staining of H69 cells using the anti-epithelial marker monoclonal antibody BerEP4-FITC. H69 cells (1×10^6 cells/mL) were cultured in RPMI-1640 containing 5% FCS in the absence or presence of the specified concentrations of etoposide (0-400 μg/mL). After 48 hours of incubation, cells were collected and incubated at room temperature for 15 minutes with (A) 5 μg/mL BerEP4-FITC or (B) 5 μg/mL mouse IgG2aκ-FITC isotype. Cells were washed and pellets were resuspended in 0.5 μg/mL solution of PI in PBS then analysed by flow cytometry.

U2OS cells [3] = assay: Viability analysis using trypan blue staining after induction of apoptosis, U2OS cells; settings: 0.5 μM staurosporine
Protocol: (§3) Jurkat cells (ATCC #TIB-152) were maintained in RPMI 1640 supplemented with 5% fetal calf serum (FCS). U2OS cells (ATCC #HTB-96) were maintained in DMEM supplemented with 5% FCS and passaged every 48-72 hours after detachment with Trypsin EDTA. Jurkat cells express telomerase and thus have the integral RNA component, hTR, whereas U2OS cells lack telomerase and hTR. Apoptosis was induced by the addition of 0.5 μM staurosporine to the culture media for 24, 48 or 72 hours.
(§4) The RNA for hTR was not detected in the hTR-negative U2OS cells but was detected in the hTR-positive Jurkat cells 24, 48 and 72 hours after the induction of apoptosis.

Jurkat cells [4] = assay: Viability analysis using trypan blue staining after induction of apoptosis, Jurkat cells; settings: 0.5 μM staurosporine
Protocol: as §3, §4

PBMC = assay: hTERT / 7-AAD staining of PBMC after staurosporine-induced apoptosis; settings: 24 hours after induction of apoptosis, 1 μM staurosporine, FIG. 5
Protocol: (§5) FIG. 5 is a graphical representation of the culturing of PMBC with conconavalin A (conA) 10 μg/mL for 72 h. Viable cells were obtained by density gradient centrifugation and then apoptosis was induced using 1 μM staurosporine for 24 h. Jurkat cells were also treated with 1 μM staurosporine for 24 h. Dot plots depict staining for 7-AAD and hTERT. The negative control is staining with the secondary antibody alone.
(§6) Peripheral blood mononuclear cells (PBMC) were prepared from a buffy coat of a discarded unit of whole blood that had been obtained from the South Australian Red Cross Blood Bank. Initially, PBMC had been separated by density gradient centrifugation over Lymphoprep (Axis-Shield, Dundee, UK) and frozen in aliquots using a controlled rate freezer. […]
(§7) After treatment, all cells were harvested, washed in PBS and stained with 7-amino actinomycin D (7-AAD) (2 μg/mL) and anti-La 3B9 mAb or its isotype control mAb, Sal5, and then with the secondary anti-mouse antibody conjugated to R-phycoerythrin (Zymed, San Francisco, Calif., USA), or with rat anti-hTERT mAb (Alexis Biochemicals, San Diego, Calif., USA) and then with the secondary anti-rat antibody conjugated to FITC (Chemicon). Cells were analysed using a FACScan (Becton Dickinson, Franklin Lakes, N.J., USA) and the results analysed with WinMDI v2.8 software.

Jurkat cells [5] = assay: hTERT / 7-AAD staining of Jurkat cells after staurosporine-induced apoptosis; settings: 24 hours after induction of apoptosis, 1 μM staurosporine, FIG. 5
Protocol: as §5, §6, §7

Row | SMILES | hTERT staining of Jurkat cells (Jurkat cells [1]) | time after treatment for hTERT staining of PI+ dead Jurkat cells to be evident (Jurkat cells [1]) [h] | TRF2 staining of Raji cells (Raji cells) | hTERT staining of PI+ dead HeLa cells (HeLa cells; 48 hours after treatment) | apoptosis and La staining in HeLa cells (HeLa cells) | hTERT staining of PI+ dead U2OS cells (U2OS cells [2]; 48 hours after treatment) | other results
1 | N.N.[Cl][Pt][Cl] [cisplatin] | increased staining for hTERT | 48 | slightly increased staining; also recorded: increased TRF2 staining |  |  |  | 
2 | COc1cc([C@@H]2c3cc4c(cc3[C@@H](O[C@@H]3O[C@@H]5CO[C@@H](C)O[C@H]5[C@H](O)[C@H]3O)[C@H]3COC(=O)[C@H]23)OCO4)cc(OC)c1O [etoposide] | increased staining for hTERT | 48 |  | Evident staining; also recorded: staining for hTERT | induced apoptosis | not | TRF2 staining of PI+ dead HeLa cells (HeLa cells; 48 hours after treatment): Evident staining; also recorded: little staining for TRF2; etoposide concentration giving maximal proportion of dead (BerEP4+ PI+) H69 carcinoma cells (H69 cells; FIG. 8A): 200 to 400 µg/mL; extent of cell death of H69 cells (H69 cells; etoposide 0-400 μg/mL, FIG. 8): dose-dependent
3 | CN[C@@H]1C[C@H]2O[C@@](C)([C@@H]1OC)n1c3ccccc3c3c4c(c5c6ccccc6n2c5c31)C(=O)NC4 [staurosporine] |  |  |  | Evident staining; also recorded: staining for hTERT | induced apoptosis | not and no corresponding staining | U2OS cells dead (trypan blue) (U2OS cells [3]; 24 hours): 36%; U2OS cells dead (trypan blue) (U2OS cells [3]; 48 hours): 95%; U2OS cells dead (trypan blue) (U2OS cells [3]; 72 hours): 100%; Jurkat cells dead (trypan blue) (Jurkat cells [4]; 24 hours): 40%; Jurkat cells dead (trypan blue) (Jurkat cells [4]; 48 hours): 85%; Jurkat cells dead (trypan blue) (Jurkat cells [4]; 72 hours): 100%; TRF2 staining of PI+ dead U2OS cells (U2OS cells [2]; 48 hours after treatment): no corresponding staining; apoptosis and La staining in U2OS cells (U2OS cells [2]; 48 h treatment): induced apoptosis; telomerase expression in dead PBMC (PBMC): little if any; telomerase expression in Jurkat cells (Jurkat cells [5]): little if any
4 | CC[C@]1(O)C[C@H]2CN(CCc3c([nH]c4ccccc34)[C@@](C(=O)OC)(c3cc4c(cc3OC)N(C=O)[C@H]3[C@@](O)(C(=O)OC)[C@H](OC(C)=O)[C@]5(CC)C=CCN6CC[C@]43[C@@H]65)C2)C1 [vincristine] | increased staining for hTERT | 48 | slightly increased staining; also recorded: increased TRF2 staining | Evident staining; also recorded: staining for hTERT | induced apoptosis | not | hTERT staining of Raji cells (Raji cells; 24 h treatment (legend FIG. 4C)): marginally increased staining; hTERT staining of PI+ dead Raji cells (Raji cells; 48 hours after treatment (text, FIG. 4C)): evident
